Results published in patent US5232684A, “Labelled resiniferatoxin, compositions thereof, and methods for using the same” (priority 1990, dated 1993).

Tests used:
[1] = target: T1, capsaicin receptor (chicken DRG) (Gallus gallus, UniProt Q8QFN9); assay: [^3H]RTX binding to chicken DRG membranes
T1 construct: homotetramer
T1 sequence (Q8QFN9 1-843): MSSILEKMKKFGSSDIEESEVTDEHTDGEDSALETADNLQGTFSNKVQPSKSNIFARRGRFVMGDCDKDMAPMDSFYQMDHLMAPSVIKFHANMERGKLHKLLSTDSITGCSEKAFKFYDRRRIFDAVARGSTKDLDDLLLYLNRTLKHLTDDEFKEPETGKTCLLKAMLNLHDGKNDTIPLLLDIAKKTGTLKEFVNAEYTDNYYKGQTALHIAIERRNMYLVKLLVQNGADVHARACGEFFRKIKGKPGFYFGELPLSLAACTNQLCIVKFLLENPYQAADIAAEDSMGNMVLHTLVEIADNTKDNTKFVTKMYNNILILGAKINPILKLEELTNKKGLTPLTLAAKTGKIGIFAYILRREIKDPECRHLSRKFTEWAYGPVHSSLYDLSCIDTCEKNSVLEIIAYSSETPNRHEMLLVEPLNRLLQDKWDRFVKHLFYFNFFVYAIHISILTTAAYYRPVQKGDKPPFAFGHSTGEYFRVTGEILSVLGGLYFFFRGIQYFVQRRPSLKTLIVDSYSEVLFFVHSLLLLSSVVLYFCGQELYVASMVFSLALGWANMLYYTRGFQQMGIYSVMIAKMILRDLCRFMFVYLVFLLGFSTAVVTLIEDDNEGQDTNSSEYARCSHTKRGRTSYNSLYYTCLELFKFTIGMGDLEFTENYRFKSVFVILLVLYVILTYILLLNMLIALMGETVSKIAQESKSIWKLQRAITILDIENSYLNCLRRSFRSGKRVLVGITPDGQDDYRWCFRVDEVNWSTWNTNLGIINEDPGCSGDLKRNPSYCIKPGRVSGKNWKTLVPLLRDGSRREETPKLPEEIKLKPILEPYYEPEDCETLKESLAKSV

Sprague-Dawley rats = assay: Induction of ear edema in Sprague-Dawley rats; type: in vivo, rat; conditions: 2×10^-7 g/ear
From the text: [^3 H]RTX (37 Ci/mmol) is synthesized by esterification of resiniferonol 9,13,14-orthophenylacetate (Chemicals for Cancer Research, Inc., Chaska, MN) at the C20 position with [^3 H]homovanillic acid (Chemical Synthesis and Analysis Laboratory, NCI-FCRF, Frederick, MD). The labelled compound is purified on HPLC and cochromatographed with authentic RTX (Chemicals for Cancer Research, Inc., Chaska, MN). The biological activity of [^3 H]RTX is confirmed in 2 assays: induction of hypothermia in CD-1 mice (10^-5 g/kg s.c.) and induction of ear edema in Sprague-Dawley rats (2×10^-7 g/ear).

[2] = target: T2, capsaicin receptor (dorsal horn from pig spinal cord) (Sus scrofa, UniProt F1RLJ0); assay: Binding to membrane preparations from dissected dorsal horn of pig spinal cord
T2 construct: membrane preparations from dissected dorsal horn from pig spinal cord; from tissue; host or cells: dissected dorsal horn of pig spinal cord
Procedure: The binding assays are carried out in a volume of 250 ul, containing assay buffer (same as the disrupting buffer but omitting DTT and EGTA and including 0.75 mM CaCl2), 26-30 ug of membrane protein and 0.25 mg/ml bovine serum albumin. […] Tubes are kept on ice while the additions are made. The assay mixture is incubated for 10 min at 37° C.; it is then cooled on ice. 150 ul of the mixture is pipetted onto Whatman GF/C or GF/F glass fiber filters presoaked with 10 mg/ml bovine serum albumin in 20 mM Tris-Cl (pH 7.4) and filtered immediately. An aliquot of 50 ul of the mixture is removed to determine total radioactivity. The filters are washed with 100 ml of ice-cold 20 mM Tris-Cl, pH 7 4, containing 0.1 mg/ml bovine serum albumin, and the bound radioactivity is determined by scintillation counting. Non-specific binding is determined in the presence of 100-1000 nM non-radioactive RTX. Under these conditions approximately 30% of the non-specific binding is due to sticking of [^3 H]RTX to the filters. The remainder presumably reflects partitioning into the lipid phase of the membranes, as had been observed previously for typical phorbol esters (Driedger, P.E. and Blumberg, P.M., Specific binding of phorbol ester tumor promoters, Proc. Natl. Acad. Sci. U.S.A., 77 (1980) 567-571). […]
Alternatively, binding can be measured to membrane preparations from dissected dorsal horn from pig spinal cord. […]

T2 sequence (F1RLJ0 1-841): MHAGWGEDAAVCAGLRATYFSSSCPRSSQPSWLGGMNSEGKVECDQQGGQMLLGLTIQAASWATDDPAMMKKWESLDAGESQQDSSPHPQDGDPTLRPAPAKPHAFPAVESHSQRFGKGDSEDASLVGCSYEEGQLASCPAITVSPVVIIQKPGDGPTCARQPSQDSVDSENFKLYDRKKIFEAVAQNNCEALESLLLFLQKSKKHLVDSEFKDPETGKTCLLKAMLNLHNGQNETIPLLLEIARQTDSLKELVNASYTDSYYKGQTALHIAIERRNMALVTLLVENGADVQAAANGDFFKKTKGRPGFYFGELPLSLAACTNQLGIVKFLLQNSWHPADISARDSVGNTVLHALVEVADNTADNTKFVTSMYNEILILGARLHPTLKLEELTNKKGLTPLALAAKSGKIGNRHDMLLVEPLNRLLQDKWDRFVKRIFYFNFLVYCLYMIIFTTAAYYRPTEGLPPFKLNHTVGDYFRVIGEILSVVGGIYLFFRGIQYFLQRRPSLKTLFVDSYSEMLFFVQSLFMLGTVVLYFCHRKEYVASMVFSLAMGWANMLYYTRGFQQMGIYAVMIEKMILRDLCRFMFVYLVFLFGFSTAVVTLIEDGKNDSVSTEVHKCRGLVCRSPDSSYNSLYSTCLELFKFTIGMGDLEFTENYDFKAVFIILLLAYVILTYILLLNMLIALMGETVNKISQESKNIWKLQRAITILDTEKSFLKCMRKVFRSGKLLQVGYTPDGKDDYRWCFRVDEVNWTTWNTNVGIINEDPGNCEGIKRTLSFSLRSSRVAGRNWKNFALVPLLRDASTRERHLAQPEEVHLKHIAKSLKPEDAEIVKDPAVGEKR

C=C(C)[C@]12C[C@@H](C)[C@@]34O[C@](Cc5ccccc5)(O[C@@H]1[C@@H]3C=C(COC(=O)Cc1ccc(O)c(OC)c1)C[C@]1(O)C(=O)C(C)=C[C@@H]41)O2 [[^3 H]RTX, [^3 H]resiniferatoxin]
binding in DRG from chickens [1]: not detected
biological activity: induction of ear edema (Sprague-Dawley rats): confirmed
% specific binding [2]: 90%
Kd [2]: 0.1 nM
